# According to patent US6433012B1, “Method for inhibiting inflammatory disease” (Large Scale Biology Corp., priority 1998, dated 2002):
# Entries after “also recorded” stand apart in the source; their conditions may differ.
# Legend:
# [1] = Oral (gavage) toxicity in nude mice; type: in vivo; conditions: doses as high as 1,000 mg/kg-day for 60 to 180 days
# [2] = Bone marrow toxicity, histological examination; type: in vivo; conditions: 500 mg/kg-day by gavage for 4 weeks
# Experimental: Swiss Webster mice were exposed to the drug at 500 mg/kg-day by gavage for a period of 4 weeks, and bone marrow was examined histologically.
# [3] = test system: MDA MB-231 human breast carcinoma xenografts; assay: Tumor growth delay, MDA MB-231 xenografts; type: in vivo, Swiss NCr nude (nu/nu) female mice; conditions: oral treatment, 6 weeks of therapy
# Experimental: Intraperitoneally administered cyclophosphamide (CTX; Cytoxan; 150 mg/kg), which is used in some regimens for adjuvant breast cancer therapy was used as a positive control.
# MDA MB-231 cell cultures = assay: Cytotoxicity in vitro (reduction of cell number); type: cell-based; conditions: Homo sapiens, treated for 48 h, read-out: IC50 (50% reduction of cell number relative to vehicle-treated control)
# [4] = test system: MDA MB-231 and MCF-7 cells; assay: Nuclear morphology of breast carcinoma cells; type: cell-based, human; conditions: 1 μ for 48 h
# [5] = test system: MCF-7 human breast carcinoma cells; assay: Chromosome condensation / prometaphase arrest; type: cell-based; conditions: 1 μM for 24 h
# MCF-7 cells = assay: Trypan blue exclusion assay (loss of membrane integrity); type: cell-based; conditions: 1 μM, 48 h of exposure
# [6] = test system: rhodamine-labeled tubulin; assay: Cell-free fluorescence assay of microtubule assembly; type: biochemical; conditions: 15 μM tubulin, GTP
# Excerpt: Microtubules are major cytoskeletal components composed of α- and β-tubulin heterodimers bound with GTP. […] The effect of the drug on microtubule assembly was investigated directly by using a cell-free fluorescence assay involving the visualization of microtubule formation from rhodamine-labeled tubulin and microtubule seeds in the presence of GTP.
# [7] = test system: TNF-α mRNA in murine macrophage PU5-1.8 cell line; assay: TNF-α mRNA in LPS-stimulated macrophages (Northern blot); type: cell-based
# Experimental: The murine macrophage PU5-1.8 cell line was purchased from the American Type Culture Collection (ATCC, Rockville, Md.). Cells were grown in DMEM medium supplemented with […], 0.1 mM nonessential amino acids, 2 mM glutamine and 5% fetal bovine serum (Life Technologies, Staten Island, N.Y.). Cells were maintained in a humidified atmosphere of 5% CO2-95% air at 37° C. Cells were passages twice weekly by firmly tapping the side of the flask to dislodge the adherent cells. Both nonadherent and adherent cells were passages. Exponentially growing cells were seeded at 5×10 ^5/mL, 4mL per 60-mm dish 24 h prior to the experiment. Test compounds were delivered in 1 mL volumes of the medium added to each dish at the start of the experiment. All dishes were incubated at 37° C. in 5% CO2-95% air for 3 h.
# Total RNA was isolated by the guanidinium-cesium chloride method as described in N. S. Waleh, J. Gallo, T. D. Grant, B. J. Murphy, R. H. Kramer and R. M. Sutherland. (1994) “Selective downregulation of integrin receptors in spheroids of squamous cell carcinoma” Cancer Res., 54:838-843. Five to 10 μg of total RNA was electrophoresed in 1% agarose gels containing 6% formaldehyde. Following electrophoresis, gels were stained with ethidium bromide to visualize the positions of 28S and 18S RNA. The RNAs were then transferred to nylon membranes (Amersham Hybond N) by capillary blotting and fixed to the filter by exposure to UV light. The blots were probed with ^32P-labeled cDNA sequences of human TNF-α obtained from the American Type Culture Collection (ATCC). The TNF-α cDNA was a 1.1 kb PstI fragment of plasmid pE4 in E. coli MM294 (ATCC 39894). Hybridizations were carried out at 42° C. in 50% formamide, 5×SSC, 5×Denhardt's solution, 0.1% SDS, and 0.3 mg/mL salmon sperm DNA. Filters were washed by 1×SSC, 0.1% SDS, twice at room temperature for 15 min and once at 55° C. in 0.1×SSC, 0.1% SDS for 1 hr. Filters were exposed to X-ray film at −70° C. using an intensifying screen (Coronex Hi-Plus).
# Hybridized bands were quantified by analyzing the images obtained by using a video densitometer (Applied Imaging Corporation, Santa Clara, Calif.). Film densities were calibrated using an optical-density wedge.
# [8] = test system: R3230Ac rat mammary carcinoma; assay: Dorsal skin-fold window chamber assay; type: in vivo, Fischer 344 rats
# Excerpt: Details of the design and the surgical technique used for the rat dorsal skin-fold window chamber assay have been described elsewhere (Pappenfuss et al., Microvasc. Res. 18:311-318 (1979)). Briefly, the anatomical midline of the dorsal skin flap of an anesthetized rat was sutured to a pair of C-clamps and a skin-fold was retracted from the body surface by hanging the C-clamp on a stage. A circle of 1 cm of skin on each side of the skin-fold was surgically removed leaving two layers of fascia containing a few microvessels. After a pair of window frames was mounted, a piece of a R3230Ac rat mammary carcinoma (about 0.5 mm^3) from a donor rat was implanted onto the fascia in the window and the chamber was sealed with glass cover slips. On the fourth postoperative day, all tumor-containing windows were evaluated using an intravital microscope. The viability of the tumor implants, vasculature morphology, and blood flow in each window were crudely scored with 1-3 points assigned to each category. Only those windows with more than 6 points on this scale were included for further study. […] Tumor-window-bearing animals were randomly divided into treated and control groups that were stratified by the window scores. […] On day 12, the tumor windows were evaluated for the effect of the drug on tumor growth and vascularization. Images of whole tumors and tumor vasculature were obtained from four peripheral tumor areas, three to four central tumor areas, and from four areas in the surrounding granulating tissue, as described above. Again, measurements of various image parameters were made by an investigator who was unaware of the treatment protocol. Using the image analysis software, the cumulative length of all vessels in focus in each image was measured. Vascular length densities were calculated by dividing the total vessel length in a frame by the area of the frame. The diameters of all vessels in each image at high magnification were also measured and averaged.
# All data were reported as means +/− the SEM for each group. The statistical significance of differences between treated and control groups was determined by using an unpaired t-test or the Mann-Whitney U-test. Statistically significant differences were defined as having a p<0.05.
# [9] = oral, postoperative days 5 to 11, no significant difference to controls
smiles,measurement,setting,value
"COC(=O)c1cc(I)c(Oc2ccc(OC)cc2)c(I)c1 [BTO-956, methyl-3,5-diiodo-4-(4′-methoxyphenoxy)benzoate]",gross pathology,[1],No other gross pathology
same,liver and kidney weights,[1],only slight and transient increases
same,bone marrow profiles,[2],did not differ from those of control animals
same,hematopoietic abnormalities,[2],no hematopoietic abnormalities
same,growth of tumors (relative mean tumor volume),[3],suppressed
same,IC50,MDA MB-231 cell cultures,300 nM
same,nuclear morphology,[4],a significant number had condensed or fragmented nuclei
same,chromosome condensation (prometaphase arrest),[5],A large fraction of these cells showed chromosome condensation characteristic of a prometaphase arrest
same,cytotoxicity by loss of membrane integrity (trypan blue exclusion),MCF-7 cells,substantial cytotoxicity
same,microtubule formation,[6]; compound 1 μM,much shorter structures
same,microtubule formation,[6]; compound 10 μM,The same effect was observed
same,inhibition of TNF-α mRNA accumulation,"[7]; 10 μM added to LPS (100 ng/mL) treated cultures, 3 h",61%
same,"effect on TNF-α mRNA expression, compound only","[7]; 10 μM, without LPS, 3 h",no effect
same,total RNA integrity,[7]; cells treated with different concentrations,intact
same,"amounts of TNF-α mRNA, concentration-effect relationship",[7]; various concentrations with LPS for 3 h,declined with the increasing concentrations
same,reduction of tumor areas compared with controls,"[8]; oral, postoperative days 5 to 11",more than 50%
same,vascular diameter in central tumor areas,[8]; [9],35.84±9.63 μm
same,vascular diameter in peripheral tumor areas,[8]; [9],32.19±4.46 μm
same,vascular diameter in surrounding areas,[8]; [9],21.52±3.33 μm
same,vascular length density in central tumor areas,[8]; [9],3.26±0.81 mm/mm^2
same,vascular length density in surrounding granulating tissue,[8]; [9],8.71±1.05 mm/^2
same,body weight loss or behavioral changes / toxic effects,"[8]; tumor-bearing rats, oral 500 mg/kg, up to seven days, 500 mg/kg",No significant body weight loss or behavioral changes; also recorded: No serious toxic effects
